Results taken from US8044095B2, “Mixture of catechins or rather polyphenols extracted from chinese green tea or other vegetables for the prevention of prostate cancer and for the treatment of prostate hypertrophy (BPH)” (Genprofiler s.r.l., priority 2004, dated 2011).

Columns and labels:
[1] = in vivo; cited from earlier work
PNT1a = assay: Dose-response growth study in SV40-immortalized human prostate epithelial cells (PNT1a), compared with PC-3; format: cell-based; settings: PNT1a versus PC-3 cells
[2] = test system: normal human prostate epithelial cells (EPIT); assay: Dose-response growth study in normal human prostate epithelial cells (EPIT); format: cell-based; settings: increasing quantities of EGCG, cells in culture
[3] = test system: prostate cancer in rats TRAMP; settings: rat, in vivo
Text: To show the validity of this hypothesis we worked on a preclinical animal model of […]. One of the more important preclinical models for the study of prostate tumor in vivo consists of transgenic rats TRAMP. These animals, when recombinant homozygotes develop prostate cancer with 100% probability in the adult stage. Progress of the illness recapitulates the essential phases of onset and progress of the human ailment. Indeed, it begins with lesions of the Prostate Intraepithelial Neoplasia (PIN) type to then give full blown neoplastic histological lesions, evolve subsequently towards androgen-resistant and aggressive phenotypes, then originating extraprostate and metastatic lesions in the terminal phase. […] Reduction of the onset of this neoplasia in treated animals was 80% (only 20 cases of neoplasia in 100 against 100 out of 100 in untreated animals).

For `O=C(O[C@@H]1Cc2c(O)cc(O)cc2O[C@@H]1c1cc(O)c(O)c(O)c1)c1cc(O)c(O)c(O)c1` [EGCG, (−)-epigallocatechina-3-gallato], the half-life in plasma [1] is given as “over 5 hours”, the “IC50 of EGCG in PNT1a relative to PC-3” value (PNT1a) is given as “very lower than in PC-3” and the “growth of EPIT” value [2] is given as “not modified significantly”.

In the case of catechins, the “adverse or collateral effect in vitro and in the animal model” value [3] is reported as “did not witness any adverse or collateral effect”.
